Test results as given in patent US7435742B2, “Quinuclidine derivatives and pharmaceutical compositions containing the same” (Laboratorios Almirall S.A., priority 2002, dated 2008).

Work on Cc1cccc(N(Cc2cc(F)c(F)cc2F)C(=O)O[C@H]2C[N+]3(CCOc4ccccc4)CCC2CC3)c1.[Br-] yielded a melting point of 137.3 to 139.1 °C.
For C[N+]12CCC(CC1)[C@@H](OC(=O)N(CCc1ccccc1)c1ccccc1)C2.[Br-], the melting point was 203 °C.
For O=C(O[C@H]1C[N+]2(CCOc3ccccc3)CCC1CC2)N(CC1CCCCC1)c1ccccc1F.[Br-], the melting point was 73.1 to 74.5 °C.
Compound C=CC[N+]12CCC(CC1)[C@@H](OC(=O)N(Cc1cccs1)c1ccccc1)C2.[Br-] has a melting point of 110 °C.
Compound O=C(O[C@H]1C[N+]2(CCOc3ccccc3)CCC1CC2)N(Cc1ccccc1)c1ccccc1.[Br-] has a melting point of 117 °C.
With CCCCN(C(=O)O[C@H]1C[N+]2(CCCc3cccs3)CCC1CC2)c1ccccc1.[Br-] the melting point was 127 °C.
With O=C(O[C@H]1C[N+]2(CCCc3ccccc3)CCC1CC2)N(CC1CCCCC1)c1ccccc1F.[Br-] the melting point was 73.3 to 74.1 °C.
With O=C(O[C@H]1C[N+]2(CCCc3cccs3)CCC1CC2)N(Cc1ccccc1)c1ccccc1.[Br-] the melting point was 95 °C.
With O=C(O[C@H]1C[N+]2(CCOc3ccccc3)CCC1CC2)N(Cc1cc(F)c(F)c(F)c1)c1cccc(F)c1.[Br-] the melting point was 173.9 to 175.5 °C.
Work on CCCCN(C(=O)O[C@H]1C[N+]2(CCCOc3ccc(F)cc3)CCC1CC2)c1ccccc1.[Cl-] yielded a melting point of 126 °C.
In the case of O=C(O[C@H]1C[N+]2(CCOc3ccccc3)CCC1CC2)N(Cc1cccs1)c1ccccc1.[Br-], the melting point is reported as 133 °C.
In the case of O=C(O[C@H]1C[N+]2(CCCc3cccs3)CCC1CC2)N(Cc1cccs1)Cc1cccs1.[Br-], the melting point is reported as 143 °C.
